Tests used:
[1] = test system: duck salad; assay: Test B flood test duck salad; format: in vivo, Heteranthera limosa; conditions: Pre-emergence
Outline: (§1)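 Each value is a visual injury score relative to controls, with 10 meaning complete control and 0 no effect. Evaluation took place twelve to sixteen days after the 2-leaf-stage plants were treated and kept in the greenhouse.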

[2] = test system: crabgrass; assay: Test B pre/postemergence crabgrass; format: in vivo, Digitaria sanguinalis
Outline: (§2)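 Response is a visual 0-to-10 score relative to untreated plants, where 0 means no effect and 10 means complete control, taken twelve to sixteen days after application. Treatments went onto soil at planting and onto foliage of 1- to 4-leaf plants, using a surfactant-containing non-phytotoxic solvent.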

[3] = test system: soybean; assay: Test B pre/postemergence soybean; format: in vivo, Glycine max
Outline: as §2

[4] = test system: rice; assay: Test B flood test rice; format: in vivo, Oryza sativa; conditions: Pre-emergence
Outline: as §1

[5] = test system: giant foxtail; assay: Test B pre/postemergence giant foxtail; format: in vivo, Setaria faberii
Outline: as §2

[6] = test system: smallflower flatsedge; assay: Test B flood test smallflower flatsedge; format: in vivo, Cyperus difformis; conditions: Pre-emergence
Outline: as §1

[7] = test system: wheat; assay: Test B pre/postemergence wheat; format: in vivo, Triticum aestivum
Outline: as §2

[8] = test system: bedstraw; assay: Test B pre/postemergence bedstraw; format: in vivo, Galium aparine
Outline: as §2

[9] = test system: corn; assay: Test B pre/postemergence corn; format: in vivo, Zea mays
Outline: as §2

[10] = test system: velvetleaf; assay: Test B pre/postemergence velvetleaf; format: in vivo, Abutilon theophrasti
Outline: as §2

[11] = test system: morningglory; assay: Test B pre/postemergence morningglory; format: in vivo, Ipomoea hederacea
Outline: as §2

[12] = test system: pigweed; assay: Test B pre/postemergence pigweed; format: in vivo, Amaranthus retroflexus
Outline: as §2

[13] = test system: blackgrass; assay: Test B pre/postemergence blackgrass; format: in vivo, Alopecurus myosuroides
Outline: as §2

[14] = test system: wild oat; assay: Test B pre/postemergence wild oat; format: in vivo, Avena fatua
Outline: as §2

[15] = test system: surinam grass; assay: Test B pre/postemergence surinam grass; format: in vivo, Brachiaria decumbens
Outline: as §2

[16] = test system: purple nutsedge; assay: Test B pre/postemergence purple nutsedge; format: in vivo, Cyperus rotundus
Outline: as §2

[17] = Rate 1000 g/ha, scale 0 to 10 (0 no effect, 10 complete control)
[18] = Rate 125 g/ha, flood test species, scale 0 to 10 where 0 is no effect and 10 is complete control
[19] = Rate 250 g/ha, flood-test species, scale 0 to 10, 0 is no effect, 10 is complete control
[20] = Rate 500 g/ha, flood test species, scale 0 to 10 (0 no effect, 10 complete control)
[21] = Preemergence, Rate 62 g/ha, scale of 0 to 10 where 0 is no effect and 10 is complete control
[22] = Preemergence, Rate 250 g/ha, scale of 0 to 10 where 0 is no effect and 10 is complete control
[23] = Preemergence, Rate 500 g/ha, scale of 0 to 10 where 0 is no effect and 10 is complete control
[24] = Rate 62 g/ha, Postemergence, scale 0 to 10 (0 no effect, 10 complete control)
[25] = Rate 125 g/ha, Postemergence, scale of 0 to 10 where 0 is no effect and 10 is complete control
[26] = Rate 250 g/ha, Postemergence, scale of 0 to 10 where 0 is no effect and 10 is complete control
[27] = Rate 500 g/ha, Postemergence, scale 0 to 10, 0 no effect, 10 complete control

CCN(C(=O)n1oc(=O)n(C2CCCCC2)c1=O)C1CCCCC1 [Compound 308]
1: Soybean plant response rating [3, 24] | Soybean plant response rating [3, 25] | Plant response rating, Soybean [3, 26]
0: Ducksalad plant response rating [1, 17] | Ducksalad plant response rating [1, 18] | Ducksalad plant response rating [1, 19] | Ducksalad plant response rating [1, 20] | Crabgrass plant response rating [2, 21] | Crabgrass plant response rating (0 to 10 scale) ([2]; Preemergence, Rate 125 g/ha) | Crabgrass plant response rating [2, 22] | Crabgrass plant response rating [2, 23] | Crabgrass plant response rating [2, 24] | Crabgrass plant response rating [2, 25] | Plant response rating, Crabgrass [2, 26] | Soybean plant response rating [3, 21] | Soybean plant response rating (0 to 10 scale) ([3]; Preemergence, Rate 125 g/ha) | Soybean plant response rating [3, 22] | Soybean plant response rating [3, 23] | Rice plant response rating [4, 17] | Rice plant response rating [4, 18] | Rice plant response rating [4, 19] | Rice plant response rating [4, 20] | Giant foxtail plant response rating [5, 21] | Giant foxtail plant response rating (0 to 10 scale) ([5]; Preemergence, Rate 125 g/ha) | Giant foxtail plant response rating [5, 22] | Giant foxtail plant response rating [5, 23] | Giant foxtail plant response rating [5, 24] | Giant foxtail plant response rating [5, 25] | Plant response rating, Giant foxtail [5, 26] | S. Flatsedge plant response rating [6, 17] | S. Flatsedge plant response rating [6, 18] | S. Flatsedge plant response rating [6, 19] | S. Flatsedge plant response rating [6, 20] | Wheat plant response rating [7, 21] | Wheat plant response rating (0 to 10 scale) ([7]; Preemergence, Rate 125 g/ha) | Wheat plant response rating [7, 22] | Wheat plant response rating [7, 23] | Wheat plant response rating [7, 24] | Wheat plant response rating [7, 25] | Plant response rating, Wheat [7, 26] | Bedstraw plant response rating [8, 21] | Bedstraw plant response rating (0 to 10 scale) ([8]; Preemergence, Rate 125 g/ha) | Bedstraw plant response rating [8, 22] | Bedstraw plant response rating [8, 23] | Bedstraw plant response rating [8, 24] | Bedstraw plant response rating [8, 25] | Plant response rating, Bedstraw [8, 26] | Bedstraw plant response rating [8, 27] | Corn plant response rating [9, 21] | Corn plant response rating (0 to 10 scale) ([9]; Preemergence, Rate 125 g/ha) | Corn plant response rating [9, 22] | Corn plant response rating [9, 23] | Corn plant response rating [9, 24] | Corn plant response rating [9, 25] | Plant response rating, Corn [9, 26] | Corn plant response rating [9, 27] | Velvetleaf plant response rating [10, 21] | Velvetleaf plant response rating (0 to 10 scale) ([10]; Preemergence, Rate 125 g/ha) | Velvetleaf plant response rating [10, 22] | Velvetleaf plant response rating [10, 23] | Velvetleaf plant response rating [10, 24] | Velvetleaf plant response rating [10, 25] | Plant response rating, Velvetleaf [10, 26] | Morningglory plant response rating [11, 21] | Morningglory plant response rating (0 to 10 scale) ([11]; Preemergence, Rate 125 g/ha) | Morningglory plant response rating [11, 22] | Morningglory plant response rating [11, 23] | Morningglory plant response rating [11, 24] | Morningglory plant response rating [11, 25] | Redroot pigweed plant response rating [12, 21] | Redroot pigweed plant response rating (0 to 10 scale) ([12]; Preemergence, Rate 125 g/ha) | Redroot pigweed plant response rating [12, 22] | Redroot pigweed plant response rating [12, 23] | Redroot pigweed plant response rating [12, 24] | Redroot pigweed plant response rating [12, 25] | Plant response rating, Redroot pigweed [12, 26] | Blackgrass plant response rating [13, 21] | Blackgrass plant response rating (0 to 10 scale) ([13]; Preemergence, Rate 125 g/ha) | Blackgrass plant response rating [13, 22] | Blackgrass plant response rating [13, 23] | Blackgrass plant response rating [13, 24] | Blackgrass plant response rating [13, 25] | Plant response rating, Blackgrass [13, 26] | Blackgrass plant response rating [13, 27] | Wild oats plant response rating [14, 21] | Wild oats plant response rating (0 to 10 scale) ([14]; Preemergence, Rate 125 g/ha) | Wild oats plant response rating [14, 22] | Wild oats plant response rating [14, 23] | Wild oats plant response rating [14, 24] | Wild oats plant response rating [14, 25] | Plant response rating, Wild oats [14, 26] | B. signalgrass plant response rating [15, 21] | B. signalgrass plant response rating (0 to 10 scale, 0 is no effect, 10 is complete control) ([15]; Preemergence, Rate 125 g/ha) | B. signalgrass plant response rating [15, 22] | B. signalgrass plant response rating [15, 23] | B. signalgrass plant response rating [15, 24] | B. signalgrass plant response rating [15, 25] | Plant response rating, B. signalgrass [15, 26] | B. signalgrass plant response rating [15, 27] | Nutsedge plant response rating [16, 21] | Nutsedge plant response rating (0 to 10 scale) ([16]; Preemergence, Rate 125 g/ha) | Nutsedge plant response rating [16, 22] | Nutsedge plant response rating [16, 23] | Nutsedge plant response rating [16, 24] | Nutsedge plant response rating [16, 25] | Plant response rating, Nutsedge [16, 26]
2: Plant response rating, Morningglory [11, 26]

Source: US6737383B1, “Herbicidal oxadiazolidines” (priority 1999, dated 2004)
